Test results reported in article PMC7961093, “Insights into the dual cleavage activity of the GH16 laminarinase enzyme class on β-1,3 and β-1,4 glycosidic bonds” (The Journal of Biological Chemistry, 2021).

Legend:
[1] = target: T1, SCLam (soil metagenome, UniProt Z9RH19THY1, E147S); experiment: isothermal titration calorimetry; format: binding; conditions: 20 mM sodium phosphate pH 6.5, 20 °C
T1 construct: monomer in asymmetric unit
T1 sequence (Z9RH19THY1 4-269 E147S): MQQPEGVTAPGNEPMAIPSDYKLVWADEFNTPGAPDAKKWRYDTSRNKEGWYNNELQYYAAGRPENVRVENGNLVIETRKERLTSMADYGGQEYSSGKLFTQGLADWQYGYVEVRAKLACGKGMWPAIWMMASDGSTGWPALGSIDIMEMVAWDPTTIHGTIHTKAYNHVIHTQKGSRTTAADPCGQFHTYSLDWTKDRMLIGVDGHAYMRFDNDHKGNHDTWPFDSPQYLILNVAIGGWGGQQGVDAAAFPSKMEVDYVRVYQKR
Description: isothermal titration calorimetry on SCLam

[2] = target: T2, TpLam (Thermotoga petrophila, UniProt A5IL44); experiment: capillary zone electrophoresis of hydrolysis products; format: biochemical; conditions: 5 mM substrate, 10 μM enzyme, 70 °C, overnight
T2 construct: gene Tpet_0899; purified preparation
T2 sequence (A5IL44 18-641): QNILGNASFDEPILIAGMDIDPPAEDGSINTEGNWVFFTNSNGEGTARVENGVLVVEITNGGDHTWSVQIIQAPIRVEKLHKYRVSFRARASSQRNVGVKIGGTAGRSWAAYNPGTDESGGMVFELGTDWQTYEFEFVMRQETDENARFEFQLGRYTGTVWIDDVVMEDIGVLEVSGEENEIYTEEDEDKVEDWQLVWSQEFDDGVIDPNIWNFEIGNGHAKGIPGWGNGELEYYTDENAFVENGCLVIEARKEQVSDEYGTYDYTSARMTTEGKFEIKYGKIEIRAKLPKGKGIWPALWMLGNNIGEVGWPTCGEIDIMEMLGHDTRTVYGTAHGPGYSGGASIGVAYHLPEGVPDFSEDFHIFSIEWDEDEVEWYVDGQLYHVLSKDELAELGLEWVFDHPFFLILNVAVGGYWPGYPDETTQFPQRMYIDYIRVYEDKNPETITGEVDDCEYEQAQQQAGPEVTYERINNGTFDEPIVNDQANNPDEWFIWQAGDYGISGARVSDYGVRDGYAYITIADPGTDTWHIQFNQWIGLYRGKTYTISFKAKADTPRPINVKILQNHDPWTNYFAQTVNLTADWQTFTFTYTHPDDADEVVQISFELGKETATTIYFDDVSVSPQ

[3] = sequential binding model, site 1 (negative subsites)

Ka × 10^4 (M^-1) ([1]; single-site model)	Ka × 10^4 (M^-1) [1, 3]	Structure (SMILES)	other results
	9.7 (±0.56) × 10^4	OC[C@H]1O[C@@H](O[C@H]2[C@H](O)[C@@H](O)[C@H](O[C@H]3[C@H](O)[C@@H](O)[C@H](O[C@H]4[C@H](O)[C@@H](O)[C@H](O[C@H]5[C@H](O)[C@@H](O)[C@H](O[C@H]6[C@H](O)[C@@H](O)C(O)O[C@@H]6CO)O[C@@H]5CO)O[C@@H]4CO)O[C@@H]3CO)O[C@@H]2CO)[C@H](O)[C@@H](O)[C@@H]1O (some centres unmarked) [C6, cellohexaose]	
	17.8 (±2.2) × 10^4	OC[C@H]1O[C@@H](O[C@@H]2[C@@H](O)[C@H](O[C@@H]3[C@@H](O)[C@H](O[C@@H]4[C@@H](O)[C@H](O[C@@H]5[C@@H](O)[C@H](O[C@H]6[C@H](O)[C@@H](CO)OC(O)[C@@H]6O)O[C@H](CO)[C@H]5O)O[C@H](CO)[C@H]4O)O[C@H](CO)[C@H]3O)O[C@H](CO)[C@H]2O)[C@H](O)[C@@H](O)[C@@H]1O (some centres unmarked) [L6, laminarihexaose]	

The next lines start with the compound.

Structure (SMILES)	Ka × 10^4 (M^-1) ([1]; single-site model)	Ka × 10^4 (M^-1) [1, 3]	other results
OC[C@H]1O[C@@H](O[C@H]2[C@H](O)[C@@H](O)[C@H](O[C@H]3[C@H](O)[C@@H](O)[C@H](O[C@H]4[C@H](O)[C@@H](CO)OC(O)[C@@H]4O)O[C@@H]3CO)O[C@@H]2CO)[C@H](O)[C@@H](O)[C@@H]1O (stereo partly drawn) [BGB, 1,3-β-D-cellotriosyl-glucose]	66.7 (±1.4) × 10^4		
OC[C@H]1O[C@@H](O[C@H]2[C@H](O)[C@@H](O)[C@H](O[C@@H]3[C@@H](O)[C@H](O[C@H]4[C@H](O)[C@@H](O)C(O)O[C@@H]4CO)O[C@H](CO)[C@H]3O)O[C@@H]2CO)[C@H](O)[C@@H](O)[C@@H]1O (stereo partly drawn) [BGC, 1,3-β-D-cellobiosyl-cellobiose]	0.59 (±0.07) × 10^4		
OC[C@H]1O[C@@H](O[C@H]2[C@H](O)[C@@H](O)[C@H](O[C@H]3[C@H](O)[C@@H](O)[C@H](O[C@H]4[C@H](O)[C@@H](O)[C@H](O[C@H]5[C@H](O)[C@@H](O)C(O)O[C@@H]5CO)O[C@@H]4CO)O[C@@H]3CO)O[C@@H]2CO)[C@H](O)[C@@H](O)[C@@H]1O (some centres unmarked) [C5, cellopentaose]			capillary zone electrophoresis of hydrolysis products [2]: we also evaluated the activity of the TpLam from Thermotoga petrophila
